This note sets out measurements from patent publication US20210161825A1, “CHLOROQUINE-BASED MATERIALS FOR THE TREATMENT OF DISEASES” (BOARD OF REGENTS OF THE UNIVERSITY OF NEBRASKA, priority 2018, published 2021).

Series [1] is described as follows: Blood pharmacokinetics after single oral dose in C. rodentium colitis mice. Particulars: for Cmax: pCQ = total (polymer-bound + hydrolyzed) HCQ. Format: in vivo, mouse. The protocol: (§1) Male C57BL/6 mice (6 weeks old, 18-20 g) were obtained from Charles River Laboratories and used for all in vivo studies. All animal experiments were conducted according to the protocol approved by the University of Nebraska Medical Center Institutional Animal Care and Use Committee. C. rodentium was used to induce colitis in mice. Bacterial glycerol stock was streaked onto LB agar plates and the bacterial colonies were grown overnight at 37° C. A single colony was inoculated into 5 ml of 2% LB broth and incubated at 37° C., 280 rpm overnight to obtain a saturated primary culture. On the day of the experiment (Day 0), 2 ml of the primary culture was added into 300 ml of LB broth and the inoculum was placed on a shaker at 37° C. at 280 rpm for 6 hours. Bacterial optical density was measured at 600 nm. Bacteria were diluted with LB broth and delivered to mice (n=15) via oral gavage in a 100 μL volume containing 5×10^8 colony forming units (CFU). Healthy control group (n=5) was orally administered 100 μL of LB broth.
(§2) The pharmacokinetics and biodistribution of single dose pCQ was evaluated in a mouse model of IBD. Colitis was induced as described above and on day 14, mice were given a single dose of HCQ or pCQ in 200 μl of deionized water via oral gavage equivalent to 30 mg/kg HCQ. Blood was collected from the submandibular vein at 0.5, 1, 2, 4, 8, and 24 h post-administration. The animals were sacrificed, and organs harvested at 0.5, 2, 8, and 24 h post-administration and stored at −80° C. until further use. The mice were randomized to selected sampling times so that three blood samples and one terminal tissue collection were obtained from each.
Blood, tissue and fecal samples were processed by two methods to determine free HCQ and total HCQ. For the first method, HCQ was isolated by a simple extraction from the organs as described in Murry et al., J. Chrom. B., (2018) 1072, 320-327. The second method utilized base hydrolysis to release HCQ covalently bound to pCQ and subsequent HCQ extraction using solid phase extraction (SPE). Tissues and feces were homogenized in water prior to loading to the SPE cartridge. The calibration and quality control samples were separately prepared for HCQ and pCQ by spiking 10 μl of appropriate calibration stock of HCQ and pCQ, in 100 μl of blank biomatrix, and 10 μl of internal standard solution (1.0 μg/ml) added. For the study, 25 μl of blood and 100 μl of tissue homogenate were used. 400 μl of 1 M NaOH, 600 μl water and 100 μl methanol were added and the samples were incubated at 50° C. for 1 h to hydrolyze HCQ from the pCQ. Subsequently, 400 μ12% formic acid was added and the samples were vortexed for 30 s and centrifuged at 1301×g for 10 min. The SPE was carried out using Oasis HLB 3cc, 60 mg extraction Cartridge (Waters, Inc). Cartridges were pre-conditioned with 1 ml acetonitrile followed by 1 ml water. Samples were loaded to the cartridges and washed with 2 ml of aqueous 15% methanol and dried at high vacuum for 15 min. Analytes were eluted with 2 ml of acetonitrile. The eluents were collected in glass tubes and dried under nitrogen in water bath at 50° C. The dry residues were reconstituted in 400 μ1 0.1% formic acid:methanol mixture (60:40) and centrifuged at 13000×g and 10 μl supernatant was injected into the HPLC. The LC-MS/MS conditions were as previously described. (Murry et al., J. Chrom. B., (2018) 1072, 320-327.) The assay was linear over the range of 1 to 2000 ng/mL.
The pharmacokinetic parameters of HCQ and pCQ in blood and tissues were calculated using non-compartmental analysis with Phoenix WinNonlin 6.3 (Pharsight Corporation). The maximum concentration (Cmax) and time to Cmax (Tmax) were obtained from the visual inspection of the concentration-time plot. […]

The nature of series [2]: Liver pharmacokinetics and distribution after single oral dose in colitis mice. Type of series: in vivo. The conditions noted are these: male, C57BL/6, mouse, single oral dose 30 mg/kg CQ equivalent, pCQ = total HCQ. As to the method: as §1, §2
(§3) Blood, tissue and fecal samples were processed by two methods to determine free HCQ and total HCQ. For the first method, HCQ was isolated by a simple extraction from the organs as described in Murry et al., J. Chrom. B., (2018) 1072, 320-327. The second method utilized base hydrolysis to release HCQ covalently bound to pCQ and subsequent HCQ extraction using solid phase extraction (SPE). Tissues and feces were homogenized in water prior to loading to the SPE cartridge. The calibration and quality control samples were separately prepared for HCQ and pCQ by spiking 10 μl of appropriate calibration stock of HCQ and pCQ, in 100 μl of blank biomatrix, and 10 μl of internal standard solution (1.0 μg/ml) added. For the study, 25 μl of blood and 100 μl of tissue homogenate were used. 400 μl of 1 M NaOH, 600 μl water and 100 μl methanol were added and the samples were incubated at 50° C. for 1 h to hydrolyze HCQ from the pCQ. […]
(§4) The pharmacokinetic parameters of HCQ and pCQ in blood and tissues were calculated using non-compartmental analysis with Phoenix WinNonlin 6.3 (Pharsight Corporation). […]

A short description of series [3]: Colon pharmacokinetics and distribution after single oral dose in colitis mice. Particulars: male, C57BL/6, mouse, single oral dose 30 mg/kg CQ equivalent, pCQ = total HCQ. Format: in vivo. As to the method: as §1, §2, §3, §4
Series [4] concerns mice with C. rodentium colitis. The series can be described thus: Therapeutic efficacy, colon histology (H&E) in C. rodentium colitis. Format: in vivo, mouse. Particulars: oral gavage every other day, 30 mg/kg HCQ equivalent, vs untreated. The protocol:
Male C57BL/6 mice (6 weeks old, 18-20 g) were obtained from Charles River Laboratories and used for all in vivo studies. All animal experiments were conducted according to the protocol approved by the University of Nebraska Medical Center Institutional Animal Care and Use Committee. C. rodentium was used to induce colitis in mice. Bacterial glycerol stock was streaked onto LB agar plates and the bacterial colonies were grown overnight at 37° C. A single colony was inoculated into 5 ml of 2% LB broth and incubated at 37° C., 280 rpm overnight to obtain a saturated primary culture. […] Bacterial optical density was measured at 600 nm. […]
The longitudinally opened colons were rolled into a Swiss roll from distal to proximal end. […] The stained sections were evaluated by a pathologist without the knowledge of the identity of the samples using a light microscope. […] Crypt heights were measured using ImageJ software, with 10 measurements taken in distal colons of each mouse. Only well-oriented and intact crypts were measured. […] CC3 positive cells in the entire colon roll were counted at 20× magnification. Results were expressed as mean CC3 positive cells per entire colon roll. CD68 positive cells were counted in five randomly chosen areas in the colon roll at high power field (HPF). Results were expressed as mean of CD68 positive cells per HPF.

The test system of a further series is CD68 positive cells. The series can be described thus: Macrophage infiltration in the colon (CD68 staining). The conditions noted are these: oral gavage every other day, 30 mg/kg HCQ equivalent, day 14; vs untreated. Type of series: in vivo, mouse.
The test system of a further series is IL-6. As to the kind of experiment: Colon cytokine mRNA by RT-PCR, IL-6. Type of series: in vivo, mouse. The conditions noted are these: seven oral doses over 14 days; vs untreated.
Another series relates to IL-2. As to the kind of experiment: Colon cytokine mRNA by RT-PCR, IL-2. Type of series: in vivo, mouse. Particulars: seven oral doses over 14 days; vs untreated.
Where [5] appears, read: male, C57BL/6, mouse, whole blood, blood, single oral dose 30 mg/kg HCQ equivalent, colitis mice, pCQ = total HCQ.

Protocol for CD68 positive cells: (§5) Colitis was induced as stated above and mice were randomly assigned to healthy, HCQ, and pCQ treatment groups (n=5) and untreated group (n=8). Starting day 1, the mice received oral gavage of either HCQ or pCQ every other day (30 mg/kg HCQ equivalent in 200 μl sterile deionized water). Untreated and healthy controls were administered 200 μl sterile deionized water. On day 14, the mice were sacrificed and the colons were harvested. The colon was opened longitudinally, cleaned of fecal matter, and excised into two parts along the length, which were stored accordingly for determination of cytokine mRNA levels by RT-PCR and histological analysis.
Protocol for IL-2: as §5
(§6) Colon samples from the therapeutic study were stored in RNAlater™ (Thermo Fisher Scientific Inc.) at 4° C. for 48 hours to allow sufficient time for tissue penetration followed by removal of excess solution. The tissues were then stored at −80° C. until further processing. […] The extracted mRNA was quantified using Nanodrop Onec UV-Vis spectrophotometer (Thermo Fisher Scientific Inc.). […] A volume corresponding to 1 μg of RNA as determined by UV spectrometer was used for cDNA synthesis. […] Results obtained from the RT-PCR were analyzed by Ct method to determine the fold change in gene expression.
Protocol for IL-6: as §5, §6

With `CCN(CCO)CCCC(C)Nc1ccnc2cc(Cl)ccc12` (centres unmarked) [HCQ, Hydroxychloroquine], in series [1] (blood, single oral dose 30 mg/kg HCQ equivalent, colitis mice, 30 mg/kg), the Cmax is given as 2,343 ± 46 ng/ml. Moreover, the “AUC0-∞” value in series [1] (blood, single oral dose 30 mg/kg HCQ equivalent, colitis mice, pCQ = total HCQ, 30 mg/kg) is reported as 28,182 ± 1476^ h × ng/ml. The bioavailability in series [1] (male, C57BL/6, mouse, whole blood, 30 mg/kg, oral vs i.v., read-out: absolute bioavailability (oral to i.v.)) came to 80%. Moreover, the Cmax in series [1] (male, C57BL/6, mouse, whole blood, po, 30 mg/kg, blood, single oral dose 30 mg/kg HCQ equivalent, colitis mice, read-out: Cmax) stood at 2340 ng/mL. In addition, the AUC(0-inf) in series [1] (male, C57BL/6, mouse, whole blood, po, 30 mg/kg, blood, single oral dose 30 mg/kg HCQ equivalent, colitis mice, pCQ = total HCQ) was determined as 28.2 µg·h/mL. In addition, in series [1] (setting [5]), the AUC(0-t) turned out to be 26.4 µg·h/mL, the apparent clearance CL/F was 18.3 mL/min/kg, the MRT was 6.8 ± 0.6 h and the time to peak (Tmax) amounted to 3.3 ± 1.2 h. Moreover, the half-life in series [1] (setting [5]) is 5.6 ± 1.9 h. For the same compound, in series [2], the AUC(0-inf) worked out at 176 µg·h/mL, the AUC(0-t) was found to be 168 µg·h/mL, the Cmax is 12800 ng/mL and the Tmax was 2 h. Further, in series [3], the AUC(0-inf) came to 209 µg·h/mL, the AUC(0-t) amounted to 166 µg·h/mL, the Cmax is 10300 ng/mL and the Tmax amounted to 8 h. Further, in series [4] (day 14), the colon crypt length result is recorded as “significantly reduced”. In addition, the “colon inflammation and epithelial injury (H&E)” value in series [4] (sacrifice day 14) was “reduced the colon inflammation and eased the epithelial injury”. Further, the “macrophage infiltration (CD68 positive cells per HPF)” value in the series on CD68 positive cells was “statistically significant reduction”. In the series on IL-6, the “colon IL-6 expression (mRNA)” value is reported as “statistically significant reduction”. In addition, the “colon IL-2 expression (mRNA)” value with IL-2 is reported as “upregulated”.
